# Measurements from article PMC8079033, “Design, synthesis, anticancer evaluation, and molecular modelling studies of novel tolmetin derivatives as potential VEGFR-2 inhibitors and apoptosis inducers” (Journal of Enzyme Inhibition and Medicinal Chemistry, 2021).
# Key:
# [1] = test system: 786-0; assay: NCI 60-cell line one-dose antiproliferative screen (SRB); assay type: cell-based; details: Homo sapiens, read-out: growth inhibition % (GI%)
# Description: (§1) Anticancer activity screening of the newly synthesised compounds was measured in vitro utilising 60 different human tumour cell lines provided by US National Cancer Institute according to previously reported standard procedure[41–43] as follows: Cells are inoculated into 96-well microtiter plates in 100 ml. After cell inoculation, the microtiter plates are incubated at 37 °C, 5% CO2, 95% air, and 100% relative humidity for 24 h prior to addition of experimental compounds. After 24 h, two plates of each cell line are fixed in situ with TCA, to represent a measurement of the cell population for each cell line at the time of compound addition (Tz). Experimental compounds are solubilised in dimethyl sulfoxide at 400-fold the desired final maximum test concentration and stored frozen prior to use. At the time of compound addition, an aliquot of frozen concentrate is thawed and diluted to twice the desired final maximum test concentration with a complete medium containing […] gentamicin. Aliquots of […] of the compounds dilutions are added to the appropriate microtiter wells already containing 100 ml of medium, resulting in the required final compound concentration. Following compound addition, the plates are incubated for an additional 48 h at 37 °C, 5% CO2, 95% air, and 100% relative humidity. For adherent cells, the assay is terminated by the addition of cold trichloroacetic acid (TCA). Cells are fixed in situ by the gentle addition of 50 ml of cold 50% (w/v) TCA (final concentration, 10% TCA) and incubated for […] at 4 °C. The supernatant is discarded, and the plates are washed five times with tap water and air-dried. Sulforhodamine B (SRB) solution (100 ml) at 0.4% (w/v) in 1% acetic acid is added to each well, and plates are incubated for 10 min at room temperature. After staining, the unbound dye is removed by washing five times with 1% acetic acid and the plates are air-dried. The bound stain is subsequently solubilised with a 10 mM trizma base, and the absorbance is read on an automated plate reader at a wavelength of 515 nm. For suspension cells, the methodology is the same except that the assay is terminated by fixing settled cells at the bottom of the wells by gently adding 50 ml of 80% TCA (final concentration, 16% TCA). Using the absorbance measurements [time zero, (Tz), control growth, (C), and test growth in the presence of compound (Ti)], the percentage growth is calculated for each compound. The One-dose data are reported as a mean graph of the percent growth of treated cells. The reported number is growth relative to the no-compound control, and relative to the time zero number of cells. This allows the detection of both growth inhibition and lethality.
# (§2) Fifteen newly synthesised compounds were tested for their in vitro antiproliferative activity by the National Cancer Institute (NCI), Maryland, USA[50], under the Developmental Therapeutic Program (DTP)[41]^,[43]^,[51]^,[52]. The tested compounds were evaluated at a concentration of 10 µM on a panel of 60 tumour cell lines representing leukaemia and non-small cell lung, colon, CNS, melanoma, ovarian, renal, prostate, and breast cancers. The antiproliferative activity was presented by the NCI as percent growth of the treated cells and is presented in Table 1 as growth inhibition percentage (GI%) achieved by the tested compounds.
# [2] = test system: A498; assay: as above; assay type: cell-based; details: Homo sapiens, read-out: growth inhibition % (GI%)
# Description: as §1, §2
# [3] = test system: A549/ATCC; assay: as above; assay type: cell-based; details: Homo sapiens, read-out: growth inhibition % (GI%)
# Description: as §1, §2
# [4] = test system: ACHN; assay: as above; assay type: cell-based; details: Homo sapiens, read-out: growth inhibition % (GI%)
# Description: as §1, §2
# [5] = test system: BT-5; assay: as above; assay type: cell-based; details: Homo sapiens, read-out: growth inhibition % (GI%)
# Description: as §1, §2
# [6] = test system: CAKI-1; assay: as above; assay type: cell-based; details: Homo sapiens, read-out: growth inhibition % (GI%)
# Description: as §1, §2
# [7] = test system: EKVX; assay: as above; assay type: cell-based; details: Homo sapiens, read-out: growth inhibition % (GI%)
# Description: as §1, §2
# [8] = test system: HCT-116; assay: as above; assay type: cell-based; details: Homo sapiens, read-out: growth inhibition % (GI%)
# Description: as §1, §2
# [9] = test system: HCT-15; assay: as above; assay type: cell-based; details: Homo sapiens, read-out: growth inhibition % (GI%)
# Description: as §1, §2
# [10] = test system: HL-60 (TB); assay: as above; assay type: cell-based; details: Homo sapiens, read-out: growth inhibition % (GI%)
# Description: as §1, §2
# [11] = test system: HOP-62; assay: as above; assay type: cell-based; details: Homo sapiens, read-out: growth inhibition % (GI%)
# Description: as §1, §2
# [12] = test system: HS 578 T; assay: as above; assay type: cell-based; details: Homo sapiens, read-out: growth inhibition % (GI%)
# Description: as §1, §2
# [13] = test system: IGROV1; assay: as above; assay type: cell-based; details: Homo sapiens, IGROV-1, read-out: growth inhibition % (GI%)
# Description: as §1, §2
# [14] = test system: K-562; assay: as above; assay type: cell-based; details: Homo sapiens, K562, read-out: growth inhibition % (GI%)
# Description: as §1, §2
# [15] = test system: LOX IMVI; assay: as above; assay type: cell-based; details: Homo sapiens, read-out: growth inhibition % (GI%)
# Description: as §1, §2
# [16] = test system: M14; assay: as above; assay type: cell-based; details: Homo sapiens, read-out: growth inhibition % (GI%)
# Description: as §1, §2
# [17] = test system: MCF7; assay: as above; assay type: cell-based; details: Homo sapiens, read-out: growth inhibition % (GI%)
# Description: as §1, §2
# [18] = test system: MDA-MB-231/ATCC; assay: as above; assay type: cell-based; details: Homo sapiens, read-out: growth inhibition % (GI%)
# Description: as §1, §2
# [19] = test system: MDA-MB-435; assay: as above; assay type: cell-based; details: Homo sapiens, read-out: growth inhibition % (GI%)
# Description: as §1, §2
# [20] = test system: MDA-MB-468; assay: as above; assay type: cell-based; details: Homo sapiens, read-out: growth inhibition % (GI%)
# Description: as §1, §2
# [21] = test system: NCI-H226; assay: as above; assay type: cell-based; details: Homo sapiens, read-out: growth inhibition % (GI%)
# Description: as §1, §2
# [22] = test system: NCI-H23; assay: as above; assay type: cell-based; details: Homo sapiens, read-out: growth inhibition % (GI%)
# Description: as §1, §2
# [23] = test system: NCI-H522; assay: as above; assay type: cell-based; details: Homo sapiens, read-out: growth inhibition % (GI%)
# Description: as §1, §2
# [24] = test system: OVCAR-4; assay: as above; assay type: cell-based; details: Homo sapiens, read-out: growth inhibition % (GI%)
# Description: as §1, §2
# [25] = test system: OVCAR-5; assay: as above; assay type: cell-based; details: Homo sapiens, read-out: growth inhibition % (GI%)
# Description: as §1, §2
# [26] = test system: OVCAR-8; assay: as above; assay type: cell-based; details: Homo sapiens, read-out: growth inhibition % (GI%)
# Description: as §1, §2
# [27] = test system: SF-268; assay: as above; assay type: cell-based; details: Homo sapiens, read-out: growth inhibition % (GI%)
# Description: as §1, §2
# [28] = test system: SF-295; assay: as above; assay type: cell-based; details: Homo sapiens, read-out: growth inhibition % (GI%)
# Description: as §1, §2
# [29] = test system: SF-539; assay: as above; assay type: cell-based; details: Homo sapiens, read-out: growth inhibition % (GI%)
# Description: as §1, §2
# [30] = test system: SK-MEL-5; assay: as above; assay type: cell-based; details: Homo sapiens, read-out: growth inhibition % (GI%)
# Description: as §1, §2
# [31] = test system: SN 12 C; assay: as above; assay type: cell-based; details: Homo sapiens, SN12C, read-out: growth inhibition % (GI%)
# Description: as §1, §2
# [32] = test system: SNB-19; assay: as above; assay type: cell-based; details: Homo sapiens, read-out: growth inhibition % (GI%)
# Description: as §1, §2
# [33] = test system: SNB-75; assay: as above; assay type: cell-based; details: Homo sapiens, read-out: growth inhibition % (GI%)
# Description: as §1, §2
# [34] = test system: SR; assay: as above; assay type: cell-based; details: Homo sapiens, read-out: growth inhibition % (GI%)
# Description: as §1, §2
# [35] = test system: SW-620; assay: as above; assay type: cell-based; details: Homo sapiens, read-out: growth inhibition % (GI%)
# Description: as §1, §2
# [36] = test system: T-47D; assay: as above; assay type: cell-based; details: Homo sapiens, T47D, read-out: growth inhibition % (GI%)
# Description: as §1, §2
# [37] = test system: TK-10; assay: as above; assay type: cell-based; details: Homo sapiens, read-out: growth inhibition % (GI%)
# Description: as §1, §2
# [38] = test system: U251; assay: as above; assay type: cell-based; details: Homo sapiens, U-251, read-out: growth inhibition % (GI%)
# Description: as §1, §2
# [39] = test system: UACC-257; assay: as above; assay type: cell-based; details: Homo sapiens, read-out: growth inhibition % (GI%)
# Description: as §1, §2
# [40] = test system: UACC-62; assay: as above; assay type: cell-based; details: Homo sapiens, read-out: growth inhibition % (GI%)
# Description: as §1, §2
# [41] = test system: UO-31; assay: as above; assay type: cell-based; details: Homo sapiens, read-out: growth inhibition % (GI%)
# Description: as §1, §2
# [42] = test system: panel of 60 tumour cell lines; assay: NCI 60-cell line one-dose screen, summary over the panel; assay type: cell-based, human; details: 10 µM
# Description: Anticancer activity screening of the newly synthesised compounds was measured in vitro utilising 60 different human tumour cell lines provided by US National Cancer Institute according to previously reported standard procedure[41–43] as follows: Cells are inoculated into 96-well microtiter plates in 100 ml. After cell inoculation, the microtiter plates are incubated at 37 °C, 5% CO2, 95% air, and 100% relative humidity for 24 h prior to addition of experimental compounds. After 24 h, two plates of each cell line are fixed in situ with TCA, to represent a measurement of the cell population for each cell line at the time of compound addition (Tz). Experimental compounds are solubilised in dimethyl sulfoxide at 400-fold the desired final maximum test concentration and stored frozen prior to use. At the time of compound addition, an aliquot of frozen concentrate is thawed and diluted to twice the desired final maximum test concentration with a complete medium containing […] gentamicin. Aliquots of […] of the compounds dilutions are added to the appropriate microtiter wells already containing 100 ml of medium, resulting in the required final compound concentration. Following compound addition, the plates are incubated for an additional 48 h at 37 °C, 5% CO2, 95% air, and 100% relative humidity. […] The bound stain is subsequently solubilised with a 10 mM trizma base, and the absorbance is read on an automated plate reader at a wavelength of 515 nm. […] Using the absorbance measurements [time zero, (Tz), control growth, (C), and test growth in the presence of compound (Ti)], the percentage growth is calculated for each compound. […]
# as §2, with “The antiproliferative activity was presented by the NCI as percent growth of the treated cells and is presented in Table 1 as growth inhibition percentage (GI%) achieved by the tested compounds.” left out
smiles,measurement,setting,value
"Cc1ccc(C(=O)c2ccc(CC(=O)NN=Cc3ccc4c(c3)OCO4)n2C)cc1 [Compound 5d, N′-(Benzo[d][1,3]dioxol-5-ylmethylene)-2–(1-methyl-5–(4-methylbenzoyl)-1H-pyrrol-2-yl)acetohydrazide]",inhibition at 10 µM,[1],< 10%
same,inhibition at 10 µM,[2],13.1%
same,inhibition at 10 µM,[3],< 10%
same,inhibition at 10 µM,[4],< 10%
same,inhibition at 10 µM,[5],< 10%
same,inhibition at 10 µM,[6],< 10%
same,inhibition at 10 µM,[7],< 10%
same,inhibition at 10 µM,[8],< 10%
same,inhibition at 10 µM,[9],< 10%
same,inhibition at 10 µM,[10],< 10%
same,inhibition at 10 µM,[11],< 10%
same,inhibition at 10 µM,[12],< 10%
same,inhibition at 10 µM,[13],< 10%
same,inhibition at 10 µM,[14],< 10%
same,inhibition at 10 µM,[15],< 10%
same,inhibition at 10 µM,[16],< 10%
same,inhibition at 10 µM,[17],< 10%
same,inhibition at 10 µM,[18],< 10%
same,inhibition at 10 µM,[19],< 10%
same,inhibition at 10 µM,[20],< 10%
same,inhibition at 10 µM,[21],< 10%
same,inhibition at 10 µM,[22],< 10%
same,inhibition at 10 µM,[23],12.4%
same,inhibition at 10 µM,[24],< 10%
same,inhibition at 10 µM,[25],< 10%
same,inhibition at 10 µM,[26],< 10%
same,inhibition at 10 µM,[27],< 10%
same,inhibition at 10 µM,[28],< 10%
same,inhibition at 10 µM,[29],< 10%
same,inhibition at 10 µM,[30],< 10%
same,inhibition at 10 µM,[31],< 10%
same,inhibition at 10 µM,[32],< 10%
same,inhibition at 10 µM,[33],< 10%
same,inhibition at 10 µM,[34],< 10%
same,inhibition at 10 µM,[35],< 10%
same,inhibition at 10 µM,[36],15.6%
same,inhibition at 10 µM,[37],< 10%
same,inhibition at 10 µM,[38],< 10%
same,inhibition at 10 µM,[39],< 10%
same,inhibition at 10 µM,[40],< 10%
same,inhibition at 10 µM,[41],22.2%
same,antiproliferative activity over the panel (in words),[42],inactive against most investigated cell lines
